IC50 and EC50 data for 17 molecules are collected here from patent US10052331B2, “3-(3H-imidazo[4,5-C]pyridin-2-yl)-1H-pyrazolo[3,4-C]pyridine and therapeutic uses thereof” (Samumed, LLC, priority 2014, dated 2018).

The test system of test [1] is Wnt activity (Wnt-responsive Sp5 promoter-luciferase reporter in SW480 cells). The experiment in a line: Wnt activity screening assay: Sp5-Luc reporter gene in SW480 colon carcinoma cells. The test is classed as cell-based. Conditions: Homo sapiens. The source says:
The screening assay for Wnt activity is described as follows. Reporter cell lines can be generated by stably transducing cancer cell lines (e.g., colon cancer) or primary cells (e.g., IEC-6 intestinal cells) with a lentiviral construct that includes a Wnt-responsive promoter driving expression of the firefly luciferase gene.
SW480 colon carcinoma cells were transduced with a lentiviral vector expressing luciferase with a human Sp5 promoter consisting of a sequence of eight TCF/LEF binding sites. SW480 cells stably expressing the Sp5-Luc reporter gene and a hygromycin resistance gene were selected by treatment with 150 μg/ml of hygromycin for 7 days. These stably transduced SW480 cells were expanded in cell culture and used for all further screening activities. For Sp5-Luc reporter gene assays, the cells were plated at 10,000 cells/well in 96-well plates with growth medium containing 10% fetal calf serum and incubated overnight at 37° C. and 5% CO2. Each compound was dissolved in DMSO as a 10 mM stock in standard j-vials and used to prepare compound source plates in dose-response format with 3-fold serial dilutions and a 10 mM top concentration. Compound transfer from serially diluted source plates to assay plates containing the cells was accomplished using a pintool (Multimek 96, Beckman equipped with V&P Scientific FP1S50H pins) based liquid handling protocol. This protocol used a slotted pin to transfer 50 nl of compound from a source plate well to an assay plate well containing 50 μl of cells in growth medium. […] Control wells received 50 nl of DMSO treatment for normalization and calculating IC50 values. The treated cells were incubated at 37° C. and 5% CO2 for an additional forty-two hours. Following incubation, the growth medium was removed and 50 μl of BrightGlo luminescence reagent (Promega) was added to each well of the 96-well assay plates. The plates were placed on an orbital shaker for 5 min and then luminescence was quantified on the Victor3 (Perkin Elmer) plate reader. Readings were normalized to DMSO only treated cells, and normalized activities were utilized for IC50 calculations using the dose-response log (inhibitor) vs. response-variable slope (four parameters) nonlinear regression feature available in GraphPad Prism 5.0 or 6.0.
In general terms: A reporter such as luciferase makes a cellular process visible.

For test [2], the system named is primary human fibroblasts derived from IPF patients (LL29 cells). The experiment in a line: Inhibition of fibrotic process: αSMA staining in TGF-β1-treated primary human fibroblasts from IPF patients (LL29 cells). The following applies: Fibroblast, 96 h, LL29 cells treated with TGF-β1 (20 ng/mL), 4 days, 11-point dose-response from 10 μM to 1.87 nM, read-out: Inhibition of fibrosis EC50. The test is classed as cell-based. The source says:
The above synthesized compounds were screened using primary human fibroblasts (derived from IPF patients) treated with TGF-β1 to determine their ability to inhibit the fibrotic process.
Primary human fibroblasts derived from IPF patients (LL29 cells) [^1Xiaoqiu Liu, et. al., “Fibrotic Lung Fibroblasts Show Blunted Inhibition by cAMP Due to Deficient cAMP Response Element-Binding Protein Phosphorylation”, Journal of Pharmacology and Experimental Therapeutics (2005), 315(2), 678-687; ^2Watts, K. L., et. al., “RhoA signaling modulates cyclin D1 expression in human lung fibroblasts; implications for idiopathic pulmonary fibrosis”, Respiratory Research (2006), 7(1), 88] were obtained from American Type Culture Collection (ATCC) and expanded in F12 medium supplemented with 15% Fetal Bovine Serum and Penicillin/Streptomycin.
Each compound was dissolved in DMSO as a 10 mM stock and used to prepare compound source plates. Serial dilution (1:2, 11-point dose-response curves from 10 μM to 1.87 nM) and compound transfer was performed using the ECHO 550 (Labcyte, Sunnyvale, Calif.) into 384-well clear bottom assay plates (Greiner Bio-One) with appropriate DMSO backfill for a final DMSO concentration of 0.1%. LL29 cells were plated at 1,500 cells/well in 80 μl/well F12 medium supplemented with 1% Fetal Bovine Serum. One hour after addition of the cells, TGF-β1 (Peprotech; 20 ng/mL) was added to the plates to induce fibrosis (ref. 1 and 2 above). Wells treated with TGF-β1 and containing DMSO were used as controls. Cells were incubated at 37° C. and 5% CO2 for 4 days. Following incubation for 4 days, SYTOX green nucleic acid stain (Life Technologies [Thermo Fisher Scientific]) was added to the wells at a final concentration of 1 uM and incubated at room temperature for 30 min. Cells were then fixed using 4% formaldehyde (Electron Microscopy Sciences), washed 3 times with PBS followed by blocking and permeabilization using 3% Bovine Serum Albumin (BSA; Sigma) and 0.3% Triton X-100 (Sigma) in PBS. Cells were then stained with antibody specific to α-smooth muscle actin (αSMA; Abcam) (ref. 1 and 2 above) in 3% Bovine Serum Albumin (BSA; Sigma) and 0.3% Triton X-100 (Sigma) in PBS, and incubated overnight at 4° C. Cells were then washed 3 times with PBS, followed by incubation with Alexa Flor-647 conjugated secondary antibody (Life Technologies [Thermo Fisher Scientific]) and DAPI at room temperature for 1 hour. Cells were then washed 3 times with PBS and plates were sealed for imaging. αSMA staining was imaged by excitation at 630 nm and emission at 665 nm and quantified using the Compartmental Analysis program on the CellInsight CX5 (Thermo Scientific). Dead or apoptotic cells were excluded from analysis based on positive SYTOX green staining. % of total cells positive for αSMA were counted in each well and normalized to the average of 11 wells treated with TGF-β1 on the same plate using Dotmatics' Studies Software. The normalized averages (fold change over untreated) of 3 replicate wells for each compound concentration were used to create dose-responses curves and EC50 values were calculated using non-linear regression curve fit in the Dotmatics' Studies Software. The EC50 values are reported.

A value given as a limit tells only on which side of the number the result lay.

Usually IC50 stands for the concentration at which inhibition is half-maximal. Low values mean higher potency, high ones lower potency. The term EC50 denotes the concentration needed to bring the measured effect to its halfway point. On to `CN(C)c1cncc(-c2cc3c(-c4nc5c(-c6cccc(F)c6)cncc5[nH]4)n[nH]c3cn2)c1` [Compound 7, 5-(3-(7-(3-Fluorophenyl)-3H-imidazo[4,5-c]pyridin-2-yl)-1H-pyrazolo[3,4-c]pyridin-5-yl)-N,N-dimethylpyridin-3-amine], for which the IC50 in test [1] is 71.8 nM. Besides, in test [2], the EC50 was at most 9 nM.

Consider `CC(C)(C)C(=O)Nc1cncc(-c2cc3c(-c4nc5c(-c6cccc(F)c6)cncc5[nH]4)n[nH]c3cn2)c1` [Compound 8, N-(5-(3-(7-(3-Fluorophenyl)-3H-imidazo[4,5-c]pyridin-2-yl)-1H-pyrazolo[3,4-c]pyridin-5-yl)pyridin-3-yl)pivalamide], for which, in test [1], the 50% inhibitory concentration (IC50) worked out at 41.1 nM. In test [2], the EC50 stood at 47 nM.

`CN(C)Cc1cncc(-c2cc3c(-c4nc5c(-c6cccc(F)c6)cncc5[nH]4)n[nH]c3cn2)c1` [Compound 13, 1-(5-(3-(7-(3-Fluorophenyl)-3H-imidazo[4,5-c]pyridin-2-yl)-1H-pyrazolo[3,4-c]pyridin-5-yl)pyridin-3-yl)-N,N-dimethylmethanamine]: in test [1], the concentration for half-maximal inhibition (IC50) is 80.1 nM. The EC50 in test [2] is at most 9 nM.

Molecule `CCCCC(=O)Nc1cncc(-c2cc3c(-c4nc5c(-c6cccc(F)c6)cncc5[nH]4)n[nH]c3cn2)c1` [Compound 18, N-(5-(3-(7-(3-Fluorophenyl)-3H-imidazo[4,5-c]pyridin-2-yl)-1H-pyrazolo[3,4-c]pyridin-5-yl)pyridin-3-yl)pentanamide] displayed an IC50 in test [1] of 29.4 nM. Besides, in test [2], the EC50 was determined as 143 nM.

Consider `Fc1cccc(-c2cncc3[nH]c(-c4n[nH]c5cnc(-c6cncc(CN7CCC(F)(F)C7)c6)cc45)nc23)c1` [Compound 25, 5-(5-((3,3-Difluoropyrrolidin-1-yl)methyl)pyridin-3-yl)-3-(7-(3-fluorophenyl)-3H-imidazo[4,5-c]pyridin-2-yl)-1H-pyrazolo[3,4-c]pyridine], for which, in test [1], the 50% inhibitory concentration (IC50) was found to be 31.1 nM. Besides, in test [2], the EC50 was at most 9 nM.

In test [1], `Fc1ccc(-c2cncc3[nH]c(-c4n[nH]c5cnc(-c6cncc(CN7CCCC7)c6)cc45)nc23)cc1` [Compound 40, 3-(7-(4-Fluorophenyl)-3H-imidazo[4,5-c]pyridin-2-yl)-5-(5-(pyrrolidin-1-ylmethyl)pyridin-3-yl)-1H-pyrazolo[3,4-c]pyridine] showed an IC50 of 1060 nM. In addition, the EC50 in test [2] was determined as 1770 nM.

On to `CCCC(=O)Nc1cncc(-c2cc3c(-c4nc5c(-c6ccc(F)cc6)cncc5[nH]4)n[nH]c3cn2)c1` [Compound 43, N-(5-(3-(7-(4-Fluorophenyl)-3H-imidazo[4,5-c]pyridin-2-yl)-1H-pyrazolo[3,4-c]pyridin-5-yl)pyridin-3-yl)butyramide], for which the IC50 in test [1] worked out at 76.7 nM. Further, the EC50 in test [2] is 76 nM.

As to `CCCCC(=O)Nc1cncc(-c2cc3c(-c4nc5c(-c6ccc(F)cc6)cncc5[nH]4)n[nH]c3cn2)c1` [Compound 44, N-(5-(3-(7-(4-Fluorophenyl)-3H-imidazo[4,5-c]pyridin-2-yl)-1H-pyrazolo[3,4-c]pyridin-5-yl)pyridin-3-yl)pentanamide], in test [1], the IC50 worked out at 164 nM. In addition, the EC50 in test [2] came to 75 nM.

Take `Fc1ccc(-c2cncc3[nH]c(-c4n[nH]c5cnc(-c6cncnc6)cc45)nc23)cc1` [Compound 52, 3-(7-(4-Fluorophenyl)-3H-imidazo[4,5-c]pyridin-2-yl)-5-(pyrimidin-5-yl)-1H-pyrazolo[3,4-c]pyridine]: in test [1], the IC50 was found to be 179 nM. For the same molecule, in test [2], the EC50 is 1200 nM.

`Nc1cncc(-c2cc3c(-c4nc5c(-c6ccccc6F)cncc5[nH]4)n[nH]c3cn2)c1` [Compound 55, 5-(3-(7-(2-Fluorophenyl)-3H-imidazo[4,5-c]pyridin-2-yl)-1H-pyrazolo[3,4-c]pyridin-5-yl)pyridin-3-amine] had an IC50 in test [1] of 70.4 nM. The EC50 in test [2] was at most 9 nM.

`CCNCc1cncc(-c2cc3c(-c4nc5c(-c6ccccc6F)cncc5[nH]4)n[nH]c3cn2)c1` [Compound 58, N-((5-(3-(7-(2-Fluorophenyl)-3H-imidazo[4,5-c]pyridin-2-yl)-1H-pyrazolo[3,4-c]pyridin-5-yl)pyridin-3-yl)methyl)ethanamine] registered an IC50 in test [1] of 40.2 nM. The EC50 in test [2] was determined as 41 nM.

`CC(C)(C)C(=O)Nc1cncc(-c2cc3c(-c4nc5c(-c6ccccc6F)cncc5[nH]4)n[nH]c3cn2)c1` [Compound 60, N-(5-(3-(7-(2-Fluorophenyl)-3H-imidazo[4,5-c]pyridin-2-yl)-1H-pyrazolo[3,4-c]pyridin-5-yl)pyridin-3-yl)pivalamide] registered an IC50 in test [1] of 47 nM. Further, in test [2], the EC50 was at least 9990 nM.

Turning to `CCCC(=O)Nc1cncc(-c2cc3c(-c4nc5c(-c6ccccc6F)cncc5[nH]4)n[nH]c3cn2)c1` [Compound 69, N-(5-(3-(7-(2-Fluorophenyl)-3H-imidazo[4,5-c]pyridin-2-yl)-1H-pyrazolo[3,4-c]pyridin-5-yl)pyridin-3-yl)butyramide], in test [1], inhibition was half-maximal at 70.3 nM (IC50). Also, the half-maximal effective concentration (EC50) in test [2] stood at 44 nM.

`O=C(Nc1cncc(-c2cc3c(-c4nc5c(-c6ccccc6F)cncc5[nH]4)n[nH]c3cn2)c1)C1CCC1` [Compound 72, N-(5-(3-(7-(2-Fluorophenyl)-3H-imidazo[4,5-c]pyridin-2-yl)-1H-pyrazolo[3,4-c]pyridin-5-yl)pyridin-3-yl)cyclobutanecarboxamide] displayed an IC50 in test [1] of 144 nM. Further, the EC50 in test [2] was at most 9 nM.

In turn, `O=C(Nc1cncc(-c2cc3c(-c4nc5c(-c6ccccc6F)cncc5[nH]4)n[nH]c3cn2)c1)C1CCCC1` [Compound 73, N-(5-(3-(7-(2-Fluorophenyl)-3H-imidazo[4,5-c]pyridin-2-yl)-1H-pyrazolo[3,4-c]pyridin-5-yl)pyridin-3-yl)cyclopentanecarboxamide] displayed an IC50 in test [1] of 156 nM. Also, in test [2], the EC50 is 4330 nM.

`CCC(=O)Nc1cncc(-c2cc3c(-c4nc5c(-c6cccnc6)cncc5[nH]4)n[nH]c3cn2)c1` [Compound 79, N-(5-(3-(7-(Pyridin-3-yl)-3H-imidazo[4,5-c]pyridin-2-yl)-1H-pyrazolo[3,4-c]pyridin-5-yl)pyridin-3-yl)propionamide]: the IC50 in test [1] was over 10000 nM. In addition, the EC50 in test [2] was 18 nM.

`c1cncc(-c2cc3c(-c4nc5c(-c6cccnc6)cncc5[nH]4)n[nH]c3cn2)c1` [Compound 82, 5-(Pyridin-3-yl)-3-(7-(pyridin-3-yl)-3H-imidazo[4,5-c]pyridin-2-yl)-1H-pyrazolo[3,4-c]pyridine]: in test [1], the half-inhibitory concentration (IC50) is over 10000 nM. The half-maximal effective concentration (EC50) in test [2] is at least 9990 nM.
